According to US7473705B2, “Hexafluoroisopropanol substituted ether derivatives” (Hoffmann-LA Roche Inc., priority 2004, dated 2009):

Experiments:
[1] = molecular target: T1, human LXR beta (Homo sapiens, UniProt P55055); experiment: Radioligand binding assay (scintillation proximity), LXR beta; details: GST-LXR beta-LBD on SPA beads, radioligand displacement; read-out: LXRbeta Binding IC50
T1 construct: human LXR beta (aa 155 to 460); made in house; host or cells: E. coli BL21(pLysS)
T1 sequence (P55055 155-460): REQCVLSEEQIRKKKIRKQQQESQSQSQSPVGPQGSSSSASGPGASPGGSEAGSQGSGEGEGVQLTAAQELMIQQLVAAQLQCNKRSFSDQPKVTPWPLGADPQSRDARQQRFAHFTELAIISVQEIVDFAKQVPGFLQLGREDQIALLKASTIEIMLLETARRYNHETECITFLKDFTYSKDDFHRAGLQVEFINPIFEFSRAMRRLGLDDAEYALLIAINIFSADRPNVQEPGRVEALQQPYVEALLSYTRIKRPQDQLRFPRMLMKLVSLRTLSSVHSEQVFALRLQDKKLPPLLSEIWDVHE
From the text: (§1) Mammalian expression vectors were constructed to express full-length human LXR alpha and LXR beta. Bacterial expression vectors were constructed to produce glutathione-s-transferase (GST) fused to the ligand binding domains (LBD) of human LXR alpha (aa 164 to 447) and human LXR beta (aa 155 to 460). To accomplish this, the portions of the sequences encoding the LBDs were amplified from full-length clones by PCR and then subcloned into the plasmid vectors. Final clones were verified by DNA sequence analysis (Willy et al., Genes Dev. 1995, 9:1033-45; Song et al., Proc Natl Acad Sci USA. 1994, 91:10809-13).
(§2) Induction, expression, and purification of GST-LBD fusion proteins were performed in E. coli strain BL21(pLysS) cells by standard methods (Ref: Current Protocols in Molecular Biology, Wiley Press, edited by Ausubel et al).
(§3) LXR alpha and LXR beta receptor binding were assayed in buffer consisting of 50 mM HEPES, pH 7.4, 10 mM NaCl, 5 mM MgCl2. For each 96-well reaction, 500 ng of GST-LXR alpha-LBD or 700 ng of GST-LXR beta-LBD fusion proteins were bound to 80 μg or 40 μg SPA beads (Pharmacia Amersham) respectively, in a final volume of 50 μl by shaking. The resulting slurry was incubated for 1 h at RT and centrifuged for 2 min at 1300×g. The supernatant containing unbound protein was removed, and the semi-dry pellet containing the receptor-coated beads was re-suspended in 50 μl of buffer. Radioligand (eg. 100,000 dpm of (N-(2,2,2-trifluoroethyl)-N-[4-(2,2,2-trifluoro-1-hydroxy-1-trifluoromethylethyl)-phenyl]-benzenesulfonamide)) was added, and the reaction incubated at RT for 1 h in the presence of test compounds, and then scintillation proximity counting was performed. All binding assays were performed in 96-well plates and the amount of bound ligand was measured on a Packard TopCount using OptiPlates (Packard). Dose response curves were measured within a range of concentration from 10^−10 M to 10^−4 M.

[2] = molecular target: T2, human LXR alpha (Homo sapiens, UniProt Q13133); experiment: Radioligand binding assay (scintillation proximity), LXR alpha; details: GST-LXR alpha-LBD on SPA beads, radioligand displacement; read-out: LXRalpha Binding IC50
T2 construct: human LXR alpha (aa 164 to 447); made in house; host or cells: E. coli BL21(pLysS)
T2 sequence (Q13133 164-447): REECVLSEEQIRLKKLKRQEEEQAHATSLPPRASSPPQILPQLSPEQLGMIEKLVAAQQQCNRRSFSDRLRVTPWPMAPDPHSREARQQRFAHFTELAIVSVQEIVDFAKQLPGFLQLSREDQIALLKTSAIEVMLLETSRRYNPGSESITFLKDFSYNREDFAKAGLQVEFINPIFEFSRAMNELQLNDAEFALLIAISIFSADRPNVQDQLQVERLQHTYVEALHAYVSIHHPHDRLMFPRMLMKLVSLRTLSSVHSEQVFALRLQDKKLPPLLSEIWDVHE
From the text: as §1, §2, §3

Row | IC50 [1] | IC50 [2] | SMILES
1 | 236 nM | 237 nM | OC(c1ccc(OCc2ccccc2)c(Cl)c1)(C(F)(F)F)C(F)(F)F [Example 13, 2-(4-Benzyloxy-3-chloro-phenyl)-1,1,1,3,3,3-hexafluoro-propan-2-ol]
2 | 22.7 nM | 33 nM | Cc1oc(-c2cccc(Cl)c2)nc1COc1ccc(C(O)(C(F)(F)F)C(F)(F)F)cc1Cl [Example 57, 2-{3-Chloro-4-[2-(3-chloro-phenyl)-5-methyl-oxazol-4-ylmethoxy]-phenyl}-1,1,1,3,3,3-hexafluoro-propan-2-ol]
3 | 14 nM | 93 nM | COC(=O)c1ccc(OC(COc2ccc(C(O)(C(F)(F)F)C(F)(F)F)cc2)c2ccccc2)cc1 (racemic) [Example 11, rac 4-{1-Phenyl-2-[4-(2,2,2-trifluoro-1-hydroxy-1-trifluoromethyl-ethyl)-phenoxy]-ethoxy}-benzoic acid methyl ester]
